Source: patent US8895605B2, “Pyrrolidine-substituted flavones as radio-sensitizers for use in the treatment of cancer” (Piramal Enterprises Limited, priority 2009, dated 2014)

Experiments:
FaDu cell line [1] = assay: In-vitro clonogenic assay (Compound A alone and with radiation); format: cell-based, human; conditions: 3500 cells/well, 1 μM Compound A for 48 h and 96 h; colonies could not be counted
FaDu cell line [2] = assay: as above; format: cell-based, human; conditions: for Number of colonies 72 h after Compound A treatment / Number of colonies 96 h after Compound A treatment: 1500 cells/plate; for Number of colonies 72 h after Compound A treatment: control 138 colonies; for Number of colonies 96 h after Compound A treatment: control 185 colonies
Method: The assay has been carried out according to the method described in Radiotherapy and Oncology, 2004, 71, 213-221; the disclosure of which is incorporated by reference for the teaching of the assay. The Fa-Du cells from exponential phase cultures were harvested by trypsinization, counted and plated at a cell density of 1500 cells/well in six-well plate and four identical groups were made. First group served as control that was untreated. Different wells of the second and third group, 24 h after seeding were irradiated at room temperature at dose of 2, 4, 6, 8 and 10 Gy respectively. The third group was further treated, 24 h after irradiation (i.e. on the third day of the experiment) with IC50 concentration of Compound A. The fourth group was treated on the third day of the experiment with IC50 concentration of Compound A alone. After completion of 72 h and 96 h respectively, the medium was changed for all the wells and the plates incubated for a total period of 12-14 days from the first day of the experiment (i.e. the cell seeding day) to allow sufficient time for the cells to form colonies of at least 50 cells. The medium was aspirated and colonies were fixed with methanol and acetic acid mixture in the proportion of 2:1. The fixation procedure was repeated after rinsing with water. The plates were dried and colonies stained with 0.1% crystal violet for 5 min. The wells were finally rinsed with water and dried. […] FIG. 3 and FIG. 4 show the visual enhancement in the radiation response by 1 μM dose of Compound A, in FaDu cell line (Seeding density: 1500 cells/plate).

[3] = tested on: Head and Neck carcinoma (FaDu) xenograft; assay: In-vivo xenograft study, growth inhibition; conditions: FaDu xenograft in SCID mice
Description: The assay can be carried out according to the method described in Clinical Cancer Research, 2003, 9, 6052-6061; the disclosure of which is incorporated by reference for the teaching of the assay. The in-vivo studies can be carried out by using Xenograft models in Severe combined immune deficiency (SCID) mice strain-CBySmn.CB17-Prkdc^scid/J, by the method described below. The statistically significant number of mice per group (n=6) is chosen in order to be able to statistically evaluate the study data. Six to eight weeks old SCID mice were used. Head and neck cancer cells are grown in MEM medium containing 10% fetal calf serum in 5% CO2 incubator at 37° C. Cells are pelleted by centrifugation at 1000 rpm for 10 minutes. […] Body weight for all the groups is recorded for the entire period. Tumor size and other signs of toxicity (external) is recorded every day. […] Tumor growth in compound treated animals is calculated as T/C (Treated/Control)×100% and growth inhibition percent (GI %) was [100−T/C %] […] Treatment is continued for 18 days as mentioned in study design. • Tumor weight in milligram is calculated using the formula for a prolate ellipsoid: Tumor weight (mg)=Length (mm)×[Breadth (mm)^2]×0.5 • Treated to control ratio (T/C %) on a given day is calculated using the formula: [formula] […]

[4] = 1 μM Compound A (IC50) alone, no radiation
[5] = 2 Gy radiation, then 1 μM Compound A 24 h after radiation
[6] = 4 Gy radiation, then 1 μM Compound A 24 h after radiation
[7] = 6 Gy radiation, then 1 μM Compound A 24 h after radiation
[8] = 8 Gy radiation, then 1 μM Compound A 24 h after radiation
[9] = 10 Gy radiation, then 1 μM Compound A 24 h after radiation

## CN1CC[C@@H](c2c(O)cc(O)c3c(=O)cc(-c4ccccc4Cl)oc23)[C@@H]1CO.Cl [Compound A, (+)-trans-2-(2-Chlorophenyl)-5,7-dihydroxy-8-(2-hydroxymethyl-1-methyl-pyrrolidin-3-yl)-chromen-4-one hydrochloride]
FaDu cell line [1]
  Radiation response in clonogenic assay (visual): visual enhancement in radiation response
FaDu cell line [2]; [4]
  Number of colonies 72 h after Compound A treatment: 38
  Number of colonies 96 h after Compound A treatment: 36
FaDu cell line [2]; 1 μM Compound A for both 72 h and 96 h, at both 4 and 6 Gy, 1500 cells/well
  Radiation response in clonogenic assay: enhanced the radiation response
FaDu cell line [2]; [5]
  Number of colonies 72 h after Compound A treatment: 45
  Number of colonies 96 h after Compound A treatment: 40
FaDu cell line [2]; [6]
  Number of colonies 72 h after Compound A treatment: 18
  Number of colonies 96 h after Compound A treatment: 17
FaDu cell line [2]; [7]
  Number of colonies 72 h after Compound A treatment: 7
  Number of colonies 96 h after Compound A treatment: 6
FaDu cell line [2]; [8]
  Number of colonies 72 h after Compound A treatment: 0
  Number of colonies 96 h after Compound A treatment: 2
FaDu cell line [2]; [9]
  Number of colonies 72 h after Compound A treatment: 0
  Number of colonies 96 h after Compound A treatment: 0
[3]; Only Compound A, 35 mpk i.p. everyday for 18 days
  Average % growth inhibition (% GI) with respect to control group: 42%
[3]; Radiation (3 Gy twice weekly, total 15 Gy) + Compound A 35 mpk i.p. everyday for 18 days
  Average % growth inhibition (% GI) with respect to control group: 75%
